From patent publication US20070089847A1, “Anti-microbial paper products having a substituted 1,2-dihydroquinoline” (Novus International, Inc., priority 2005, published 2007)
Structures can show the parent of a compound that is named as a salt.

Tests used:
Type in all cases: cell-based
[1] = tested on: Aspergillus niger ATCC 9642 and Aspergillus flavus ATCC 9643; assay: In vitro disk assay of antifungal properties, agar plates containing test agent (Example 3); conditions: 48 hours at 25° C.
Experimental: In this assay, paper disks were soaked in a fungal solution and placed on the surface of agar plates containing different concentration of the test agent. The radius of fungal growth radiating from each disk was considered indicative of the degree of inhibition by the agent relative to a control.
The test agents were diluted in DMSO or water and tested at several different concentrations. The test agents were added to the agar solution after sterilization, but prior to solidification. […] The plates were incubated for 48 hours at 25° C. The zones of fungal growth (or no growth) were analyzed and the minimum total inhibitory concentration (%) was estimated for each agent.

[2] = tested on: Aspergillus niger ATCC 9642, Aspergillus flavus ATCC 9643, and Chaetomium globosum ATCC 6205; assay: ASTM D 2020 fungal resistance test of five biocides on treated glass fiber filter paper (Example 1); conditions: for Observed Fungal Growth after 14 Days incubation at 28° C., 1: replicate 1; for Observed Fungal Growth after 14 Days incubation at 28° C., 2: replicate 2; for Observed Fungal Growth after 14 Days incubation at 28° C., 3: replicate 3
Experimental: (§1) Five different biocides at varying concentrations were tested for fungal resistance using the ASTM D 2020 Standard Test Method for Mildew (Fungus) Resistance of Paper and Paperboard protocol. This test method was designed for the qualitative determination of mildew (fungus) resistance of paper and paperboard, particularly those types that have been given a fungus resistant treatment. Specific test conditions applied to this project are described below, but at all times the ASTM D 2020 test protocol was strictly followed.
All five biocides (Santoquin®, HMTBA-Cu, BIOX-AUSD, Tox-Guard*Dry, and Metasol-TK 100) were tested at three different concentrations (200, 400, and 600 ppm). Santoquin®, HMTBA-Cu, and BIOX-AUSD were diluted in dimethyl sulfoxide (DMSO), while Tox-Guard*Dry and Metasol-TK100 were diluted in water. DMSO was used a control diluent. The fungal inoculum was comprised of three different species: Aspergillus niger ATCC 9642, Aspergillus flavus ATCC 9643, and Chaetomium globosum ATCC 6205.
(§2) Glass fiber filter paper was treated with the individual test biocides at the respective concentrations listed in Table 1 and allowed to dry overnight. The filter paper carriers, tested in triplicate, were placed in Petri dishes on mineral salts agar and inoculated with the fungal inoculum. The samples were incubated at 28° C. for 2 weeks and examined daily during the first week of incubation for the growth of the test organisms.
(§3) If no growth was observed on a sample after the first week of incubation, the sample was incubated for an additional seven days. […] If, after two weeks, there was no detectable growth of test organisms, the sample was considered fungus resistant.

[3] = tested on: Aspergillus niger ATCC 9642, Aspergillus flavus ATCC 9643, and Chaetomium globosum ATCC 6205; assay: ASTM D 2020 fungal resistance test of Santoquin with Kathon 893 as control biocide (Example 2); conditions: for Observed Fungal Growth after 14 Days incubation at 28° C.: replicates 1-3
Experimental: as §1, with “One biocide sample, labeled Santoquin® was” for “Five different biocides at varying concentrations were”
The Santoquin® biocide was diluted with DMSO and tested at two different concentrations: 0.1% and 1.0%. The biocide Kathon 893 was diluted to 0.1% and 1.0% in water and used as a control biocide. DMSO was used as a control diluent. The fungal inoculum was comprised of three different species: Aspergillus niger ATCC 9642, Aspergillus flavus ATCC 9643, and Chaetomium globosum ATCC 6205.
as §2, with “two different” for “the individual test biocides at the respective”, “(0.1% and 1.0%) of Santoquin®” for “listed in Table 1”
as §3

[4] = all three concentrations (200, 400, and 600 ppm)
[5] = both concentrations (0.1% and 1.0%)

NCC(=O)O [Glycine]
Minimum Total Inhibitory Concentration (%) [1]: >0.5%

O=C(O)CO [Glycolic Acid]
Minimum Total Inhibitory Concentration (%) [1]: >0.5%

Cl [HCl]
Minimum Total Inhibitory Concentration (%) [1]: 0.5%

CCCCCCCCCCCCCCCC[n+]1ccccc1.[Cl-] [Hexadecylpyridinium Cl]
Minimum Total Inhibitory Concentration (%) [1]: 0.2%

OO [Hydrogen Peroxide]
Minimum Total Inhibitory Concentration (%) [1]: 0.1%

CC(O)C(=O)O (stereo not drawn) [Lactic Acid]
Minimum Total Inhibitory Concentration (%) [1]: >0.5%

C=C(C)[C@H]1CC=C(C)CC1 [Limonene]
Minimum Total Inhibitory Concentration (%) [1]: >0.5%

NCCCC[C@H](N)C(=O)O [Lysine]
Minimum Total Inhibitory Concentration (%) [1]: >0.5%

O=C(O)/C=C\C(=O)O [Maleic Acid]
Minimum Total Inhibitory Concentration (%) [1]: 0.5%

O=C(O)CC(=O)O [Malonic Acid]
Minimum Total Inhibitory Concentration (%) [1]: >0.5%

CSCC[C@H](N)C(=O)O [Methionine]
Minimum Total Inhibitory Concentration (%) [1]: >0.5%

COC(=O)c1ccc(O)cc1 [Methyl Paraben]
Minimum Total Inhibitory Concentration (%) [1]: 0.5%

CSCCC(O)C(=O)[O-].CSCCC(O)C(=O)[O-].[Cu+2] (stereo not drawn) [Mintrex Cu, Cu(HMTBA)2]
Observed Fungal Growth after 14 Days incubation at 28° C., 1 ([2]; 200 ppm): Growth | Observed Fungal Growth after 14 Days incubation at 28° C., 2 ([2]; 200 ppm): Growth | Observed Fungal Growth after 14 Days incubation at 28° C., 3 ([2]; 200 ppm): Growth | Observed Fungal Growth after 14 Days incubation at 28° C., 1 ([2]; 400 ppm): Growth | Observed Fungal Growth after 14 Days incubation at 28° C., 2 ([2]; 400 ppm): Growth | Observed Fungal Growth after 14 Days incubation at 28° C., 3 ([2]; 400 ppm): Growth | Observed Fungal Growth after 14 Days incubation at 28° C., 1 ([2]; 600 ppm): Growth | Observed Fungal Growth after 14 Days incubation at 28° C., 2 ([2]; 600 ppm): Growth | Observed Fungal Growth after 14 Days incubation at 28° C., 3 ([2]; 600 ppm): Growth | fungal growth at the end of the two weeks [2, 4]: fungal growth | fungal resistance classification in the ASTM D 2020 test [2, 4]: fungus non-resistant | Minimum Total Inhibitory Concentration (%) [1]: 0.5%

CCCCCCCCOC(=O)c1cc(O)c(O)c(O)c1 [Octyl Gallate]
Minimum Total Inhibitory Concentration (%) [1]: >0.5%

O=P(O)(O)O [Phosphoric Acid]
Minimum Total Inhibitory Concentration (%) [1]: 0.5%

O=Cc1ccc2c(c1)OCO2 [Piperonal]
Minimum Total Inhibitory Concentration (%) [1]: 0.1%

CC(=O)[O-].[K+] [Potassium Acetate]
Minimum Total Inhibitory Concentration (%) [1]: >0.5%

O=C([O-])c1ccccc1.[K+] [Potassium Benzoate]
Minimum Total Inhibitory Concentration (%) [1]: >0.5%

C/C=C/C=C/C(=O)[O-].[K+] [Potassium Sorbate]
Minimum Total Inhibitory Concentration (%) [1]: >0.5%

CCC(=O)O [Proprionic Acid]
Minimum Total Inhibitory Concentration (%) [1]: 0.2%

CCCOC(=O)c1cc(O)c(O)c(O)c1 [Propyl Gallate]
Minimum Total Inhibitory Concentration (%) [1]: >0.5%

CCCOC(=O)c1ccc(O)cc1 [Propyl Paraben]
Minimum Total Inhibitory Concentration (%) [1]: 0.015%

CCOc1ccc2c(c1)C(C)=CC(C)(C)N2 [Santoquin, 6-ethoxy-1,2-dihydro-2,2,4-trimethylquinoline]
fungal growth at the end of two weeks ([2]; 200 ppm): fungal growth | fungal resistance classification in the ASTM D 2020 test ([2]; 200 ppm): fungus non-resistant | Observed Fungal Growth after 14 Days incubation at 28° C., 1 ([2]; 200 ppm): Growth | Observed Fungal Growth after 14 Days incubation at 28° C., 2 ([2]; 200 ppm): Growth | Observed Fungal Growth after 14 Days incubation at 28° C., 3 ([2]; 200 ppm): Growth | fungal growth at the end of two weeks ([2]; 400 and 600 ppm): no fungal growth | fungal resistance classification in the ASTM D 2020 test ([2]; 400 and 600 ppm): fungal resistant | Observed Fungal Growth after 14 Days incubation at 28° C., 1 ([2]; 400 ppm): No Growth | Observed Fungal Growth after 14 Days incubation at 28° C., 2 ([2]; 400 ppm): No Growth | Observed Fungal Growth after 14 Days incubation at 28° C., 3 ([2]; 400 ppm): No Growth | Observed Fungal Growth after 14 Days incubation at 28° C., 1 ([2]; 600 ppm): No Growth | Observed Fungal Growth after 14 Days incubation at 28° C., 2 ([2]; 600 ppm): No Growth | Observed Fungal Growth after 14 Days incubation at 28° C., 3 ([2]; 600 ppm): No Growth | Minimum Total Inhibitory Concentration (%) [1]: >0.5% | Observed Fungal Growth after 14 Days incubation at 28° C. ([3]; 0.1%): No growth | Observed Fungal Growth after 14 Days incubation at 28° C. ([3]; 1.0%): No growth | fungal growth at the end of the two weeks [3, 5]: no fungal growth | fungal resistance classification in the ASTM D 2020 test [3, 5]: fungal resistant

CC(=O)[O-].[Na+] [Sodium Acetate]
Minimum Total Inhibitory Concentration (%) [1]: >0.5%

O=C([O-])c1ccccc1.[Na+] [Sodium Benzoate]
Minimum Total Inhibitory Concentration (%) [1]: >0.5%

O=S([O-])O.[Na+] [Sodium Bisulfite]
Minimum Total Inhibitory Concentration (%) [1]: 0.2%

O=C([O-])CC(O)(CC(=O)[O-])C(=O)[O-].[Na+].[Na+].[Na+] [Sodium Citrate]
Minimum Total Inhibitory Concentration (%) [1]: >0.5%

CC(=O)O.CC(=O)[O-].[Na+] [Sodium Diacetate]
Minimum Total Inhibitory Concentration (%) [1]: 0.5%

O=C([O-])[C@H](O)[C@@H](O)[C@H](O)[C@H](O)CO.[Na+] [Sodium Gluconate]
Minimum Total Inhibitory Concentration (%) [1]: >0.5%

O=P1([O-])OP(=O)([O-])OP(=O)([O-])OP(=O)([O-])OP(=O)([O-])OP(=O)([O-])O1.[Na+].[Na+].[Na+].[Na+].[Na+].[Na+] [Sodium Hexametaphosphate]
Minimum Total Inhibitory Concentration (%) [1]: >0.5%

CC(O)C(=O)[O-].[Na+] (stereo not drawn) [Sodium Lactate]
Minimum Total Inhibitory Concentration (%) [1]: >0.5%

O=S([O-])S(=O)(=O)[O-].[Na+].[Na+] [Sodium Metabisulfite]
Minimum Total Inhibitory Concentration (%) [1]: 0.1%

CCC(=O)[O-].[Na+] [Sodium Proprionate]
Minimum Total Inhibitory Concentration (%) [1]: >0.5%

O=P([O-])([O-])OP(=O)([O-])[O-].[Na+].[Na+].[Na+].[Na+] [Sodium Pyrophosphate]
Minimum Total Inhibitory Concentration (%) [1]: >0.5%

O=S([O-])[O-].[Na+].[Na+] [Sodium Sulfite]
Minimum Total Inhibitory Concentration (%) [1]: >0.5%

O=S([O-])([O-])=S.[Na+].[Na+] [Sodium Thiosulfate]
Minimum Total Inhibitory Concentration (%) [1]: >0.5%

O=P([O-])(O)O.[Na+] [Sodium bi-Phosphate]
Minimum Total Inhibitory Concentration (%) [1]: >0.5%

O=S(=O)(O)O [Sulfuric Acid]
Minimum Total Inhibitory Concentration (%) [1]: 0.1%

CC(C)(C)c1cc(O)ccc1O [TBHQ (Tert-ButylHydroQuinone), Tert-ButylHydroQuinone]
Minimum Total Inhibitory Concentration (%) [1]: 0.1%

O=C(O)C(O)C(O)C(=O)O (stereo not drawn) [Tartaric Acid]
Minimum Total Inhibitory Concentration (%) [1]: >0.5%

N[C@@H](Cc1c[nH]c2ccccc12)C(=O)O [Tryptophan]
Minimum Total Inhibitory Concentration (%) [1]: >0.5%

CCCCC(=O)O [Valeric Acid]
Minimum Total Inhibitory Concentration (%) [1]: 0.1%

COc1cc(C=O)ccc1O [Vanillin]
Minimum Total Inhibitory Concentration (%) [1]: 0.1%

Stearyl Citrate
Minimum Total Inhibitory Concentration (%) [1]: >0.5%
